In the oligonucleotide strings, read from the 5' end, every base follows the letter of its sugar. An asterisk marks phosphorothioate; unmarked linkages are phosphodiester. Other units and linkages are bracketed, terminal groups are in braces. A string of capitals states the bases alone. e = 2'-O-(2-methoxyethyl) (MOE); [5mC] = 5-methylcytosine; d = 2'-deoxy (DNA)
Test system: human Factor 7 mRNA
Assay: Antisense inhibition of human Factor 7 mRNA in HepB3 cells, lipofectin, 50 nM, real-time RT-PCR
Format: cell-based
Conditions: for % Inhibition (human Factor 7 mRNA): 50 nM, ~24 h
Method: Antisense oligonucleotides targeted to a Factor 7 nucleic acid were tested for their effects on Factor 7 mRNA in vitro. Cultured HepB3 cells at a density of 4,000 cells per well were transfected using lipofectin reagent with 50 nM antisense oligonucleotide. After a treatment period of approximately 24 hours, RNA was isolated from the cells and Factor 7 mRNA levels were measured by real-time RT-PCR, as described herein. Factor 7 mRNA levels were adjusted according to total RNA content as measured by RIBOGREEN®. Results are presented as percent inhibition of Factor 7, relative to untreated control cells.
(§1) Antisense oligonucleotides targeted to a Factor 7 nucleic acid were designed and tested for their effects on Factor 7 mRNA in vitro. Certain antisense oligonucleotides from Table 3 were also retested for their effects on Factor 7 mRNA in vitro. Cultured HepB3 cells at a density of 4,000 cells per well were transfected using lipofectin reagent with 50 nM antisense oligonucleotide. After a treatment period of approximately 24 hours, RNA was isolated from the cells and Factor 7 mRNA levels were measured by real-time RT-PCR, as described herein. Human Factor 7 primer probe set RTS 2927 was used to measure mRNA levels. Factor 7 mRNA levels were adjusted according to total RNA content as measured by RIBOGREEN®. Results are presented as percent inhibition of Factor 7, relative to untreated control.
as §1, with “tested” for “tested for their effects on Factor 7 mRNA in vitro. Certain antisense oligonucleotides from Table 3 were also retested”
These gapmers were designed by creating gapmers shifted slightly upstream and downstream (i.e. “microwalk”) of the original gapmers from Table 7. Gapmers were also created with various motifs, e.g. 5-10-5 MOE, 3-14-3 MOE, and 2-13-5 MOE. These gapmers were tested in vitro. Cultured HepB3 cells at a density of 4,000 cells per well were transfected using lipofectin reagent with 50 nM antisense oligonucleotide. After a treatment period of approximately 24 hours, RNA was isolated from the cells and Factor 7 mRNA levels were measured by real-time RT-PCR. Factor 7 mRNA levels were adjusted according to total RNA content, as measured by RIBOGREEN®. Results are presented as percent inhibition of Factor 7, relative to untreated control cells.

[1] = HepB3 cells, lipofectin, 50 nM antisense oligonucleotide, approximately 24 hours, primer probe set RTS 2927, relative to untreated control
[2] = Example 1, HepB3 cells, lipofectin, relative to untreated control cells
[3] = HepB3 cells, gapmers targeted to nucleobases 11830 to 11869 of SEQ ID NO: 1 (Table 9)
[4] = HepB3 cells, gapmers (5-10-5, 3-14-3, 2-13-5 MOE) targeted to nucleobases 4868 to 4899 of SEQ ID NO: 1
[5] = Example 4, HepB3 cells, lipofectin, relative to untreated control
[6] = HepB3 cells, gapmers targeted to nucleobases 14707 to 14732 of SEQ ID NO: 1 (Table 11)

Substance | % Inhibition of human Factor 7 mRNA levels [1] [%] | % Inhibition (human Factor 7 mRNA) [2] [%] | further results
416545 (antisense eA*eG*eA*eA*eA*d[5mC]*dA*dT*d[5mC]*d[5mC]*d[5mC]*dA*dT*dT*dT*eT*e[5mC]*e[5mC]*e[5mC]*eA) [compound 416545] | 8 | – | –
407940 (antisense eT*eG*eT*eG*eA*dA*dG*d[5mC]*dT*dG*dG*dG*dA*dA*dG*e[5mC]*eA*eG*eG*eT) [compound 407940] | – | 62 | –
416521 (antisense e[5mC]*eA*e[5mC]*e[5mC]*e[5mC]*d[5mC]*dA*d[5mC]*d[5mC]*dA*dG*dG*dT*dT*dG*eT*eG*e[5mC]*eA*e[5mC]) [compound 416521] | 36 | – | –
422162 (antisense eG*eA*e[5mC]*dA*dA*dT*dG*dG*dT*d[5mC]*dA*dG*dG*dG*d[5mC]*dT*dG*eG*eT*eT) [compound 422162] | – | – | % Inhibition of human Factor 7 mRNA levels [3]: 59%
422300 (antisense eG*eA*dG*d[5mC]*d[5mC]*d[5mC]*dG*dA*dG*dT*dT*d[5mC]*dT*dG*d[5mC]*eA*eG*eG*eA*eG) [compound 422300] | – | – | % Inhibition of human Factor 7 mRNA levels [4]: 65%
407945 (antisense eA*eA*eT*e[5mC]*eA*dT*dG*dG*dG*d[5mC]*dA*dA*d[5mC]*d[5mC]*d[5mC]*eA*eG*eT*eG*eG) [compound 407945] | – | 56 | –
407635 (antisense eT*eG*eG*e[5mC]*e[5mC]*d[5mC]*d[5mC]*dA*dG*d[5mC]*dT*dG*dA*d[5mC]*dG*eA*eT*eG*e[5mC]*e[5mC]) [compound 407635] | – | 64 | –
422093 (antisense eA*eA*eT*eG*eG*dT*d[5mC]*dA*dG*dG*dG*d[5mC]*dT*dG*dG*eT*eT*eT*eT*eG) [compound 422093] | – | – | % Inhibition of human Factor 7 mRNA levels [3]: 42%
422180 (antisense e[5mC]*e[5mC]*eA*d[5mC]*d[5mC]*d[5mC]*dG*d[5mC]*d[5mC]*dG*dG*d[5mC]*dT*d[5mC]*dT*dG*d[5mC]*eT*e[5mC]*eA) [compound 422180] | – | – | % Inhibition of human Factor 7 mRNA levels (HepB3 cells, gapmers targeted to nucleobases 13760 to 13789 of SEQ ID NO: 1 (Table 10)): 54%
407944 (antisense e[5mC]*e[5mC]*eA*eG*eT*dG*dG*dG*dT*dG*dG*d[5mC]*dA*dG*dG*e[5mC]*eA*e[5mC]*e[5mC]*eA) [compound 407944] | – | 59 | –
416510 (antisense eG*eA*e[5mC]*eG*eA*dG*dG*d[5mC]*d[5mC]*dT*d[5mC]*dA*dG*dG*dT*eG*eG*eA*e[5mC]*eG) [compound 416510] | 30 | – | –
416553 (antisense eG*eG*eT*eT*e[5mC]*dT*d[5mC]*dT*dG*d[5mC]*dA*d[5mC]*dA*dG*dG*eG*eT*eA*eG*eA) [compound 416553] | 56 | – | –
422188 (antisense eG*e[5mC]*eG*dG*dA*dA*dG*dA*dA*dG*dG*dG*dA*d[5mC]*dG*dG*dA*eA*eG*eG) [compound 422188] | – | – | % Inhibition (human Factor 7 mRNA) [5]: 37%
407914 (antisense e[5mC]*e[5mC]*eA*eG*e[5mC]*dT*dG*dA*d[5mC]*dG*dA*dT*dG*d[5mC]*d[5mC]*e[5mC]*eG*eT*e[5mC]*eA) [compound 407914] | – | 82 | –
422132 (antisense eG*e[5mC]*eA*eG*e[5mC]*d[5mC]*dT*dG*dA*dG*dG*d[5mC]*d[5mC]*dA*dG*e[5mC]*eA*eG*eA*eT) [compound 422132] | – | – | % Inhibition of human Factor 7 mRNA levels [6]: 54%
407888 (antisense e[5mC]*eG*eA*eA*eG*dA*d[5mC]*dT*dG*d[5mC]*dA*dG*d[5mC]*d[5mC]*dA*eG*eG*e[5mC]*eA*eG) [compound 407888] | – | 34 | –
416527 (antisense eG*eA*eG*e[5mC]*eT*dT*d[5mC]*d[5mC]*d[5mC]*dA*dA*dG*dT*dT*dG*eG*e[5mC]*eA*eG*eT) [compound 416527] | 49 | – | –

Substance | % Inhibition of human Factor 7 mRNA levels [1] [%] | % Inhibition (human Factor 7 mRNA) [2] [%] | further results
407595 (antisense eT*e[5mC]*e[5mC]*eT*eG*dA*dG*dG*d[5mC]*d[5mC]*dT*dT*dA*dG*d[5mC]*eG*eA*e[5mC]*e[5mC]*e[5mC]) [compound 407595] | – | 71 | –
407617 (antisense eT*e[5mC]*e[5mC]*eA*e[5mC]*dA*dT*dG*dG*dA*dT*dA*dT*dT*d[5mC]*eA*eA*e[5mC]*eT*eG) [compound 407617] | – | 67 | –
422123 (antisense eG*eA*eG*e[5mC]*eG*d[5mC]*dG*dG*dA*dA*dG*dA*dA*dG*dG*eG*eA*e[5mC]*eG*eG) [compound 422123] | – | – | % Inhibition (human Factor 7 mRNA) [5]: 16%
416548 (antisense eA*eG*eG*eT*eG*dA*dA*dT*dG*dA*dA*dA*dT*dT*d[5mC]*eT*eA*e[5mC]*e[5mC]*eT) [compound 416548] | 29 | – | –
422283 (antisense e[5mC]*eA*dG*d[5mC]*dA*dG*d[5mC]*d[5mC]*dT*dG*dA*dG*dG*d[5mC]*d[5mC]*eA*eG*e[5mC]*eA*eG) [compound 422283] | – | – | % Inhibition of human Factor 7 mRNA levels [6]: 50%
416551 (antisense e[5mC]*eA*eG*eA*eA*dA*d[5mC]*dA*d[5mC]*d[5mC]*d[5mC]*dA*dT*d[5mC]*d[5mC]*eT*e[5mC]*eT*eG*eA) [compound 416551] | 19 | – | –
422137 (antisense eA*e[5mC]*eA*eG*e[5mC]*dA*d[5mC]*dA*d[5mC]*dA*dT*dG*dG*dA*dG*eT*e[5mC]*eA*eG*e[5mC]) [compound 422137] | – | – | % Inhibition (human Factor 7 mRNA) (Example 6 microwalk, nucleobases 15098 to 15122 of SEQ ID NO: 1, HepB3, lipofectin): 45%
407953 (antisense eA*e[5mC]*eA*eT*e[5mC]*d[5mC]*dA*dA*dT*dT*d[5mC]*d[5mC]*dA*d[5mC]*dA*eG*eG*eA*eT*e[5mC]) [compound 407953] | – | 20 | –
422291 (antisense eT*eT*d[5mC]*dT*dG*d[5mC]*dA*dG*dG*dA*dG*d[5mC]*dG*dG*d[5mC]*e[5mC]*eT*eA*eA*eA) [compound 422291] | – | – | % Inhibition of human Factor 7 mRNA levels [4]: 53%
416528 (antisense eT*eG*eA*eT*eA*dA*dA*dA*d[5mC]*d[5mC]*dT*d[5mC]*dT*dG*dG*eA*e[5mC]*eA*e[5mC]*e[5mC]) [compound 416528] | 10 | – | –
416445 (antisense eT*eA*e[5mC]*eT*eG*d[5mC]*dT*d[5mC]*dA*d[5mC]*dA*dG*d[5mC]*d[5mC]*dG*e[5mC]*e[5mC]*eG*eT*eT) [compound 416445] | 57 | – | –
407886 (antisense eG*e[5mC]*eA*eG*eA*dG*dG*dA*dG*d[5mC]*d[5mC]*dT*dG*dA*dG*eG*eG*e[5mC]*e[5mC]*eT) [compound 407886] | – | 72 | –
416513 (antisense e[5mC]*eT*eG*eA*eT*dG*dT*dG*dA*dA*dA*dA*d[5mC]*d[5mC]*dG*eG*e[5mC]*eA*eT*eG) [compound 416513] | 37 | – | –
407938 (antisense e[5mC]*eA*e[5mC]*e[5mC]*e[5mC]*dA*dG*d[5mC]*dG*dA*dA*dG*dG*dG*dA*eG*eA*eA*eA*eT) [compound 407938] | – | 60 | –
422100 (antisense eG*eA*eG*eG*eA*dG*dA*d[5mC]*dA*dA*dT*dG*dG*dT*d[5mC]*eA*eG*eG*eG*e[5mC]) [compound 422100] | – | – | % Inhibition of human Factor 7 mRNA levels [3]: 59%
416429 (antisense eA*e[5mC]*eG*e[5mC]*e[5mC]*dG*dT*dG*dG*dG*d[5mC]*dT*dT*d[5mC]*d[5mC]*eT*e[5mC]*e[5mC]*eT*eG) [compound 416429] | 47 | – | –
